Legend:
[1] = Solubility of progesterone in carrier; assay type: physicochemical
[2] = tested on: acute TBI; test: Phase II ProTECT trial: outcome variables 30 days post injury; assay type: in vivo, human
Text: In addition to monitoring subjects for signs of harm, we hoped to detect signals of activity. […] For this preliminary study, our primary outcome of interest was Glasgow Outcome Scale Extended (GOSE) 30 days post-injury. […] Thirty days following each injury event, we assessed each patient's Glasgow Outcome Score Extended (GOSE) and Disability Rating Scale (DRS). Patients who were severely impaired were classified as “not testable”-a surrogate marker for a poor outcome. Reliability codes were used to record reasons for non-administration of a particular measure, such as physical impairment (e.g., hemiparesis) cognitive impairment (e.g., could not understand instructions), or intoxication. One-year outcomes will be reported at a later date. […] Our secondary aim was to look for signs of drug activity by assessing several measures of outcome. Our a priori primary measure of outcome was the Glasgow Outcome Scale-Extended ([…] et al. (1998) Journal of Neurotrauma 15(8):587-597). […] (1987) Journal of Neurosurgery 67(6):832-840) and 5) the Disability Rating Scale (DRS) (Hall et al. […] Variables determined to be independently associated with all-cause mortality or CNS related-death, such as iGCS (dichotomized into moderate versus severe), injury severity score and Marshall CT score were incorporated in a stepwise logistic regression analyses. […]

[3] = clinical; conditions: human, in vivo
Description: Multiple blood samples were obtained from 11 female and 21 male trauma patients receiving PG and 1 female and 3 male patients receiving placebo infusions for 72 h. Values for CSS, CL, t1/2 and Vd were obtained using AUC(0-72) and post-infusion blood samples.
This study was approved by the Institutional Review Board of Emory University, the Drug Safety Monitoring Board (NINDS) and the FDA (IND #58,986). After obtaining informed consent, thirty-six patients meeting the inclusion criteria outlined as follows were studied. […] Inclusion criteria required that each patient be ≧18 years old, have a closed head injury arising from blunt trauma, have a moderate to severe brain injury (Index Glasgow Coma Score (GCS) 4-12) and arrive in the Emergency Department and obtain informed consent (from next-of-kin) in less than 11 hours post injury.
Aliquots of each solution were assayed for final concentration and sterility. […] Each kit contained six vials. […] The placebo kits were also formulated with 95% ethanol. Because of the alcohol concentration, doses of study drug were mixed with Intralipid® immediately prior to infusion. Each infusion dose was administered over 12 hours and repeated every 12 hours for a total of 72 hours. […] The dosing worksheet was also used to calculate the volume of study medication to be diluted in Intralipid® for each of the remaining infusion reservoirs at a standard rate of 10 cc/hr.
Nine (5 ml) samples were obtained at the following times during the infusion: pre-infusion (0), 4, 6, 12, 24, 36, 48, 60, and 72 hours. An additional five samples were obtained following cessation of infusion at: 0.5, 1, 2, 4 and 8 hours. Samples were allowed to clot, and then centrifuged. After that, the serum was removed and stored at −70° C. until analyzed.
The primary pharmacokinetic parameter, CL, was estimated as the ratio of the dose to area under the serum concentration-time curve (AUC). AUC's were calculated using the linear trapezoidal rule (Veng-Pedersen (1989) Clin Pharmacokinet, 17(6):424-40). The elimination phase rate constant, ke, was calculated from the serum concentration-time data following the termination of the infusion using iterative non-linear regression (WinNonlin®, Pharsight Corporation, Mountain View, Calif.). Volume of Distribution was estimated as the ratio of CL and ke. Css was estimated as the ratio of Dose and CL. Actual Css was defined as the concentration achieved when the slope of the serum concentration-time curve for three or more consecutive samples was not different from zero.
Predicted Css concentrations were calculated as the ratio of the infusion rate/clearance. Differences between predicted and measured Css were made using a ‘t’ test for repeated measures. A Bland-Altman analysis was conducted to assess the magnitude of any bias associated with this approach (Bland and Altman (1986) Lancet, 1(8476):307-10). Pharmacokinetic parameter comparisons between male and female were accomplished using a ‘t’ test for independent means. A p value of less than 0.05 was considered the minimum level for rejection of the null hypothesis.

[4] = tested on: acute TBI; test: Phase II ProTECT trial: physiological parameters during infusion; assay type: in vivo, human
Description: Primary Data Analysis—Treatment and placebo groups were compared with respect to a variety of demographic, historical and prehospital characteristics to ensure that important independent predictors of outcome were equally distributed. Next, the groups were compared with respect to rates of adverse and serious adverse events, using Fisher's exact test. Generalized linear model analysis using a negative binomial distribution was used to compare rates of events that occurred multiple times per patient within the first 30 days (McCullagh and Nelder (1989) Generalized Linear Models (2nd ed, Chapman & Hill)). Then, group specific differences in 30-day outcomes. Fisher's exact test was used to analyze GOSE scores dichotomized into “good or moderate recovery” versus all other levels. Wilcoxon's rank sum test was used to compare group specific DRS scores. Mean and median durations of coma and post-traumatic amnesia were compared using student's t-test. All analyses were stratified on an a priori basis by brain injury severity (iGCS 4-8 (severe) versus iGCS 9-12 (moderate)). Longitudinal mixed effects models were used to analyze ICP-TIL as well as other hourly or daily clinical measurements from enrollment through treatment day 4.

[5] = Stability of progesterone solutions (HPLC-UV); assay type: physicochemical
Text: For all stability testing, the method of […], et al. was used with minor modifications ([…], et al. (1999) Journal of Pharmaceutical & Biomedical Analysis, 19(5):803-8). The method was originally validated to assess the stability of medroxyprogesterone acetate and estradiol valerate tablets. It is an isocratic HPLC-UV method utilizing external standardization. A 5 micron, 4.6×250 mm BDS-Hypersil C-18 column (Keystone Scientific) was used and the analyses were completed on an Agilent 1100 model HPLC system with photodiode array detector. The mobile phase consisted of 40% 0.07M ammonium acetate buffer, pH 7.2 and 60% acetonitrile. Detection was at […]. […] Reproducibility as assessed by 10 injections of the same preparation on multiple different days was always less that 10%. […] A five point standard curve was run with each analysis.

[6] = tested on: acute TBI
Description: This phase II, randomized, double blind, placebo-controlled clinical trial was conducted at an urban, level I trauma center. 100 adults presenting within 11 hours of a blunt TBI with a Glasgow Coma Scale score of 4-12 were enrolled with proxy consent. […] Blinded observers closely monitored patients for the occurrence of adverse events, and initial functional outcomes were assessed 30 days post-injury. The primary safety outcome was difference in adverse event rates, including mortality. The primary measure of activity was dichotomized Glasgow outcome scale extended (GOSE) 30 days post injury.
We also hoped to detect signals of activity.
According to the U.S. Food and Drug Administration, an “adverse event” is any undesirable medical event occurring to a subject in a clinical trial, whether or not related to the study drug. This includes events not seen at baseline, or worsened if present at baseline. “Serious adverse events” are defined as death, immediate risk of death, or suspicion that use or continued use would result in the patient's death, prolongation of existing hospitalization, persistent or significant disability/incapacity, or a congenital anomaly/birth defect.
These included any thromboembolic event (deep vein thrombosis, thrombophlebitis, ischemic myocardial infarction, pulmonary embolism, stroke or transient ischemic attack), elevated liver enzymes, temperature elevation, allergic reactions, and hyperglycemia. […] An independent internal safety monitor made the determination if an adverse event was associated with study treatment. Both the FDA and an independent NIH-appointed data safety monitoring board independently reviewed these determinations.
Interventions: Following proxy consent, patients were placed in one of 8 clinical subgroups defined by gender (male versus female), race (black versus all others) and TBI severity (moderate versus severe). […] This asymmetric approach was adopted at the request of our NIH-appointed DSMB to maximize the number of patients receiving study drug while maintaining blinding.
Whenever a patient was enrolled, the next kit in sequence for that subgroup was used to prepare infusions. […] The remaining vials were used to prepare 5 subsequent 12-hour infusions at the same standard rate of 10 mls/hour for a total of 3 days of treatment. Details of drug monitoring are reported elsewhere (Wright et al. (2005) J Clin Pharmacol 45(6):640-648).
Methods of Measurement: To assess drug safety, study personnel rounded daily to document the occurrence of adverse events (AEs) or serious adverse events (SAES). Hourly vital signs (blood pressure, heart rate, respiratory rate, temperature, and pulse oximetry), intracranial pressure readings, and other parameters (mean arterial pressure, cerebral perfusion pressure, and fluid balance), were abstracted from each patient's chart. Laboratory values were obtained from the hospital's information system, and concomitant medications and interventions were noted.
Whenever an SAE occurred, an independent board-certified neurosurgeon assessed its potential relationship to study treatment using pre-defined scale. SAEs were reported within 24 hours to the Institutional Review Board (IRB), our NIH-appointed Data Safety Monitoring Board (DSMB), and the U.S. Food and Drug Administration. All other adverse events were reported to on a weekly basis.
Primary Data Analysis—Treatment and placebo groups were compared with respect to a variety of demographic, historical and prehospital characteristics to ensure that important independent predictors of outcome were equally distributed. Next, the groups were compared with respect to rates of adverse and serious adverse events, using Fisher's exact test.

[7] = tested on: moderate to severe TBI; test: Pilot phase II randomized double-blind trial of progesterone for traumatic brain injury, preliminary evaluation (Example 2); assay type: in vivo, human
Description: The administration protocol was carried out was described above in Example 1.
To determine if a therapeutic response was achieved, the following endpoints were monitored: • ICP reduction determined by calculating “therapeutic intensity level” (ICP-TIL); • duration of coma (injury to awaking); • mortality one-month post injury; • neurological outcome 1 month and 1 year post-injury, as determined by Glasgow outcome scale (GOS), Disability rating scale (DRS) and Galveston orientation and amnesia test (GOAT).
The administration protocol and pharmaceutical composition administered are described in detail in Example 1. Follow up regarding condition occurred at 30 days and 1 year.

## CC(=O)[C@H]1CC[C@H]2[C@@H]3CCC4=CC(=O)CC[C@]4(C)[C@H]3CC[C@]12C [progesterone, pregn-4-ene-3,20-dione]
[1]
  solubility: soluble only in alcohol
[2]; Index GCS = 9-12
  Disability Rating Score: Total DRS, mean: 5
[2]; moderately brain-injured patients
  DRS scores vs placebo: significantly better DRS scores
[3]; both
  maintenance infusion rate to achieve target concentration of 450±100 ng/mL: approximately 0.8 mg/kg/h
[3]; both, CL
  clearance: 28.8 mL/min/kg
[3]; both, terminal half-life
  half-life: 1.78 ± 1 h
[3]; female
  Vd: 1.33 L/kg
  concentration at 0 h: 2.86 ± 1.37 ng/mL
[3]; female, CL
  clearance: 31.3 mL/min/kg
[3]; male
  Vd: 1.62 L/kg
  concentration at 0 h: 2.53 ± 1.73 ng/mL
[3]; male, CL
  clearance: 27.7 mL/min/kg
[3]; male, iv
  clearance: 22.2 mL/min/kg
[4]; first 4 days post-injury, subjects with monitors, not statistically significant
  mean intracranial pressure levels (ICPs) trend: remained stable
[4]; in vivo
  Mean Duration of Pressures Exceeding Threshold Values: CPP < 60: 6.9 h
  Mean Duration of Pressures Exceeding Threshold Values: ICP > 25: 5.0 h
  Mean Duration of Pressures Exceeding Threshold Values: MAP < 70: 2.5 h
  Mean Duration of Pressures Exceeding Threshold Values: Systolic BP < 90: 2.7 h
  Mean Frequency of Pressures Exceeding Threshold Values: CPP < 60, Rate/1000 consecutive readings: 92.9
  Mean Frequency of Pressures Exceeding Threshold Values: ICP > 25, Rate/1000 consecutive readings: 70.2
  Mean Frequency of Pressures Exceeding Threshold Values: MAP < 70, Rate/1000 consecutive readings: 29.5
  Mean Frequency of Pressures Exceeding Threshold Values: Systolic BP < 90, Rate/1000 consecutive readings: 32.1
  Percent of Patients with Clinical Values Exceeding the Threshold: CPP < 60: 48.7%
  Percent of Patients with Clinical Values Exceeding the Threshold: ICP > 25: 32.4%
  Percent of Patients with Clinical Values Exceeding the Threshold: MAP < 70: 29.0%
  Percent of Patients with Clinical Values Exceeding the Threshold: Systolic BP < 90: 29.0%
[4]; infusion day 0
  Cerebral Perfusion Pressure, mean: 70.3 mmHg
[4]; infusion day 1
  Cerebral Perfusion Pressure, mean: 73.4 mmHg
  Fluid Balance, mean: 767.9 + mls
[4]; infusion day 2
  Cerebral Perfusion Pressure, mean: 75.9 mmHg
  Fluid Balance, mean: 1189.5 + mls
[4]; infusion day 3
  Cerebral Perfusion Pressure, mean: 74.9 mmHg
  Fluid Balance, mean: 802.0 + mls
[4]; infusion day 4
  Cerebral Perfusion Pressure, mean: 73.8 mmHg
  Fluid Balance, mean: 818.7 + mls
[5]
  stability of Intralipid solutions containing progesterone in 95% ethyl alcohol: ≥ 24 h
[5]; room temperature
  stability of solution of progesterone in 95% ethyl alcohol: up to 2 years
[6]; 30-day adverse event rate
  Death within 30 days: 13.0%
[6]; both, human, in vivo, 30 days
  Acute respiratory distress syndrome: 2.6%
  Cardiac Arrhythmia: 5.2%
  Central nervous system infection: 1.3%
  Cholestatic Jaundice: 6.5%
  Fever: 70.1%
  Gastrointestinal Bleed: 5.2%
  Hyperglycemia-non DM: 27.3%
  Hypertension: 11.7%
  Hypotension: 9.1%
  Hypothermia: 5.2%
  Hypoxemia: 11.7%
  Increase Liver Enzyme: 6.5%
  Phlebitis at Injection Site: 1.3%
  Rash or Hives: 2.6%
  Seizures: 5.2%
  Sepsis: 2.6%
  Shock: 2.6%
  Suspected Pneumonia: 11.7%
  Syndrome of inappropriate ADH: 1.3%
  Tachycardia: 24.7%
  Thromboembolic Disease: 3.9%
[6]; in vivo
  adverse events specifically ascribed to administration: two cases of superficial phlebitis at the IV site
  deep vein thrombosis: Three patients
  rise in mean temperature over the infusion interval, treatment by time interaction slope: −0.0055
  serious adverse events attributed to study drug: No serious adverse events were attributed to progesterone
[7]; vs control
  reduction in brain deaths: 60%
[7]; vs group B, p=0.0295 Fisher's exact test
  proportion of subjects experiencing brain death: significantly lower proportion

Source: patent US8455468B2, “Methods for the treatment of a traumatic central nervous system injury” (priority 2005, dated 2013)
